Experimental data published in patent US5972963A, “3-aryl-2-(1-substituted 4-piperidinyl)-1,1-dioxo-3H-benzo[D]isothiazoles and related compounds” (Hoechst Marion Roussel, Inc., priority 1997, dated 1999).
Where a name gives a salt, the structure may show the parent alone. Read-outs that look alike come from different tables or passages of the source.

Key:
[1] = system: serotonin (5HT) uptake, rat whole brain synaptosomes; assay: Inhibition of [^3 H]-Serotonin Uptake in Rat Whole Brain Synaptosomes; format: biochemical; settings: at 3.16 μmn
Experimental: Inhibition of [^3 H]-Serotonin Uptake in Rat Whole Brain Synaptosomes
This assay is used a biochemical screen for compounds which block serotonin (5 HT) uptake, which may be useful as antidepressants and for the treatment of personality disorders such as obsessive compulsive disorder.
(§1) A. Animals: Male CR Wistar rats (100-125 g).
3. Serotonin creatinine SO4 is obtained from Sigma Chemical Co. A 0.1 mM stock solution is made up in 0.01 N HCl. This is used to dilute the specific activity of radiolabeled 5 HT.
4. 5-[1,2-^3 H(N)]-Hydroxytryptamine creatinine sulfate (Serotonin), specific activity 20-30 Ci/mmol is obtained from New England Nuclear.
The final desired concentration of ^3 H-5 HT in the assay is 50 nM. The dilution factor is 0.8. Therefore, the KHBB is made up to contain 62.5 nM [^3 H]-5 HT.
(§2) 5. For most assays, a 1 mM solution of the test compound is made up in suitable solvent and serially diluted such that the final concentration in the assay ranges from 2×10^-8 to 2×10^-5 M. Seven concentrations are used for each assay. Higher or lower concentrations may be used depending on the potency of the compound.
(§3) Male Wistar rats are decapitated and the brain rapidly removed. Whole brain minus cerebella is weighed and homogenized in 9 volumes of ice-cold 0.32 M sucrose using a Potter-Elvejhem homogenizer. Homogenization should be done with 4-5 up and down strokes at medium speeds to minimize synaptosome lysis. The homogenate is centrifuged at 1000 g for 10 minutes at 0°-4° C. The supernatant (S1) is decanted and is used for uptake experiments.
800 μl KHBB +[^3 H]-5 HT.
(§4) 20 μl Vehicle or appropriate drug concentration
(§5) Tubes are incubated at 37° C. under a 95% O2 /5% CO2 atmosphere for 5 minutes. For each assay, 3 tubes are incubated with 20 μl of vehicle at 0° C. in an ice bath. After incubation all tubes are immediately centrifuged at 4000 g for 10 minutes. The supernatant fluid is aspirated and the pellets dissolved by adding 1 ml of solubilizer (Triton X-100+50% EtOH, 1:4 v/v). The tubes are vigorously vortexed, decanted into scintillation vials, and counted in 10 ml of Liquiscint scintillation counting cocktail. Active uptake is the difference between cpm at 37° C. and 0° C. The percent inhibition at each drug concentration is the mean of three determinations. IC50 values are derived from log-probit analysis.

[2] = system: dopamine (DA) uptake, rat striatal synaptosomes; assay: Inhibition of ^3 H-Dopamine Uptake in Rat Striatal Synaptosomes; format: biochemical; settings: at 3.16 μmn; head: whole brain synaptosomes, protocol: striatal synaptosomes
Experimental: Inhibition of ^3 H-Dopamine Uptake in Rat Striatal Synaptosomes
this assay is used to show differential drug effects on dopamine uptake versus nerepppinephrine uptake and to identify therapeutic agents for diseases where the potentiation of dopaminergic activity may be helpful (e.g. Parkinson's Disease).
as §1
3. Dopamine HCl is obtained from Sigma Chemical Co. A 0.1 mM stock solution is made up in 0.01 N HCl. This is used to dilute the specific activity of radiolabeled 5 HT.
4. 3,4-[8-^3 H(N)]-Dihydroxyphenylethylamine (Dopamine), specific activity 4-34 Ci/mmol is obtained from New England Nuclear.
The final desired concentration of ^3 H-DA in the assay is 50 nM. The dilution factor is 0.9. Therefore, the KHBB is made up to contain 55.5 nM [^3 H]-5 DA.
as §2, with “1 mM stock solution of” for “1 mM solution of”, “up in a suitable solvent” for “up in suitable solvent”
as §3, with “Corpora striata are rapidly removed,” for “Whole brain minus cerebella is”, “(S)” for “(S1)”
as §4, §5

[3] = system: norepinephrine (NE) uptake, rat whole brain synaptosomes; assay: Inhibition of [^3 H]-Norepinephrine Uptake in Rat Whole Brain or Hypothalamic Synaptosomes; format: biochemical; settings: at 3.16 μmn
Experimental: Inhibition of [^3 H]-Norepinephrine Uptake in Rat Whole Brain or Hypothalamic Synaptosomes
This assay is used as a biochemical screen for potential antidepressants which block norepinephrine uptake.
as §1
3. L(-)-Norepinephrine bitartrate is obtained from Sigma Chemical Co. A 0.1 mM stock solution is made up in 0.01 N HCl. This is used to dilute the specific activity of theradiolabeled NE.
4. Levo-[Ring-2,5,6-^3 H]-Norepinephrine (40-50 Ci/mmol) is obtained from New England Nuclear.
The final desired concentration of [^3 H]-NE in the assay is 50 nM. The dilution factor is 0.8. Therefore, the KHBB is made up to contain 62.5 nM [^3 H]-NE.
as §2, with “1 mM stock solution of” for “1 mM solution of”, “up in a suitable solvent” for “up in suitable solvent”
as §3, with “removed. Either whole” for “removed. Whole”, “cerebella or hypothalamus” for “cerebella”, “lysis. TH” for “lysis. The”
as §4
Tubes are incubated at 37° C., under a 95% O2 /5% CO2 atmosphere for 5 minutes. For each assay, 3 tubes are incubated with 20 μl of vehicle at 0° C. in a ice bath. After incubation all tubes are immediately centrifuged at 4000 g for 10 minutes. The supernatant fluid is aspirated and the pellets dissolved by adding 1 ml of solubilizaer (Triton X-100+50% EtOH, 1:4 v/v). The tubes are vigorously vortexed, decanted into scientillation vials, and counted in 10 ml of Liquiscint scintillation countering cocktail. Active uptake is the difference between cpm at 37° C. and 0C. The percent inhibition at each drug concentration is the mean of three determinations IC50 values are derived from log-probit analysis.

[4] = system: norepinephrine (NE) uptake; settings: literature; cited from earlier work
[5] = system: dopamine (DA) uptake; settings: cited from earlier work
[6] = system: 5 HT uptakes sites; settings: in vitro receptor binding, literature; cited from earlier work
[7] = system: serotonin (5 HT) uptake; settings: literature; cited from earlier work

| SMILES | % inhibition 5HT [1] [%] | % inhibition DA [2] [%] | % inhibition NE [3] [%] | NE uptake inhibition [4] | DA uptake inhibition ([5]; literature) | other results |
| --- | --- | --- | --- | --- | --- | --- |
| O=C(O)/C=C\C(=O)O.O=S1(=O)c2ccccc2C(c2ccc(Cl)cc2)N1C1CCN(CCO)CC1 (centres unmarked) [2-{4-[3(4-Chlorophenyl)-1,1-dioxo-3H-benzo[d]isothiazol-2-yl]-piperidin-1-yl}-ethanol maleate] | 3.68 | 18.71 | 8.71 |  |  |  |
| C[C@@H]1O[C@@H](O[C@H]2C[C@@H](O)[C@]3(CO)[C@H]4[C@H](O)C[C@]5(C)[C@@H](C6=CC(=O)OC6)CC[C@]5(O)[C@@H]4CC[C@]3(O)C2)[C@H](O)[C@H](O)[C@H]1O [ouabain] |  |  |  | also inhibited |  | DA uptake inhibition [5]: potently inhibited |
| CNCCCN1c2ccccc2CCc2ccccc21 [desipramine] |  |  |  | more active than the tertiary amines (e.g. imipramine) |  |  |
| C[C@H](N)Cc1ccccc1 [d-amphetamine] |  |  |  |  | no stereo selectivity for the inhibition of DA uptake |  |
| COC(=O)[C@H]1[C@@H](OC(=O)c2ccccc2)C[C@@H]2CC[C@H]1N2C [cocaine] |  |  |  | potently inhibited | potently inhibited |  |
| CN(C)CCCN1c2ccccc2CCc2ccccc21 [[^3 H]-imipramine] |  |  |  |  |  | labelling of 5 HT uptake sites [6]: labels 5 HT uptakes sites |
| Cl.O=S1(=O)c2ccccc2C(c2ccc(F)cc2)N1C1CCNCC1 (centres unmarked) [3-(4-Fluorophenyl)-2-(4-piperidinyl)-2,3-dihydrobenzo[d]isothiazole-1,1-dioxide hydrochloride] | 37.92 | 30.34 | 25.02 |  |  |  |
| O=C(O)/C=C\C(=O)O.O=C1c2ccccc2C(=O)N1CCCN1CCC(N2C(c3ccc(Cl)cc3)c3ccccc3S2(=O)=O)CC1 (centres unmarked) [2-(3-{4-[3-(4-Chlorophenyl)-1,1-dioxo-3H-benzo[d]isothiazol-2-yl]piperidin-1-yl}propyl)-isoindol-1,3-dione maleate] | 29.02 | 57.36 | 28.37 |  |  |  |
| CC(COc1ccccc1)N(CCCl)Cc1ccccc1 (centres unmarked) [phenoxybenzarrine] |  |  |  | also inhibited |  |  |
| CC(NC(C)(C)C)C(=O)c1cccc(Cl)c1 (centres unmarked) [bupropion] |  |  |  |  | inhibit DA uptake |  |
| CN(C)C/C=C(/c1ccc(Br)cc1)c1cccnc1 [zimelidine] |  |  |  |  |  | 5 HT uptake inhibition [7]: fairly selective effects on 5 HT uptakes |
| C[C@@H](N)Cc1ccccc1 [1-amphetamine] |  |  |  |  | no stereo selectivity for the inhibition of DA uptake |  |
| COc1cc(C(C)=O)ccc1OCCCN1CCC(N2C(c3ccc(Cl)cc3)c3ccccc3S2(=O)=O)CC1 (centres unmarked) [1-[4-(3-{4-[3-(4-Chlorophenyl)-1,1-dioxo-3H-benzo[d]isothiazol-2-yl]-1-piperidin-1-yl}-propoxy)-3-methoxyphenyl]-ethanone maleate] | 48.78 | 67.94 | 55.23 |  |  |  |
